The values below come from US8933030B2, “Treatments for gastrointestinal disorders” (Ironwwod Pharmaceuticals, Inc., priority 2010, dated 2015).

For data set [1] the following is noted: after oral administration at therapeutic dose levels; cited from earlier work.
In data set [2] the target is T1, guanylate cyclase-C (GC-C) (Homo sapiens, UniProt P25092). Nature of the data set: cGMP response in T84 cells (GC-C agonist activity). Format: cell-based. Further details: tested for guanylate cyclase-C (GC-C) agonist activity in T84 cells; endogenous in cells; host or cells: T84 cells. Here is the method: Linaclotide and Cys1-IMD were tested for guanylate cyclase-C (GC-C) agonist activity in T84 cells as follows. In each well of a 96-well plate, approximately 200,000 T84 cells/well was first incubated with 1 mM 3-isobutyl-1-methylxanthine (IBMX) in 0.18 mL of Dulbecco's modified Eagle's medium (DMEM) for 10 minutes at 37° C. Each peptide was diluted to final concentrations ranging from 0.1 to 10,000 nM, and 0.02 mL of each dilution was added in duplicate to a 96-well plate containing the T84 cells, for a final volume of 0.20 mL per well. The peptide reactions were incubated for 30 min at 37° C. Following the incubation, the supernatants were removed and discarded and the cells were lysed with cold 0.1 M hydrochloric acid (HCl) for 30 min on ice. The cell debris was removed by centrifugation and the concentration of guanosine 3′,5′-cyclic monophosphate (cyclic GMP) in each lysate was determined using liquid chromatography with tandem mass spectrometry. The data were used to construct dose-response curves and calculate half-maximal effective concentration (EC50) values for each test article.
T1 sequence (P25092 24-1073): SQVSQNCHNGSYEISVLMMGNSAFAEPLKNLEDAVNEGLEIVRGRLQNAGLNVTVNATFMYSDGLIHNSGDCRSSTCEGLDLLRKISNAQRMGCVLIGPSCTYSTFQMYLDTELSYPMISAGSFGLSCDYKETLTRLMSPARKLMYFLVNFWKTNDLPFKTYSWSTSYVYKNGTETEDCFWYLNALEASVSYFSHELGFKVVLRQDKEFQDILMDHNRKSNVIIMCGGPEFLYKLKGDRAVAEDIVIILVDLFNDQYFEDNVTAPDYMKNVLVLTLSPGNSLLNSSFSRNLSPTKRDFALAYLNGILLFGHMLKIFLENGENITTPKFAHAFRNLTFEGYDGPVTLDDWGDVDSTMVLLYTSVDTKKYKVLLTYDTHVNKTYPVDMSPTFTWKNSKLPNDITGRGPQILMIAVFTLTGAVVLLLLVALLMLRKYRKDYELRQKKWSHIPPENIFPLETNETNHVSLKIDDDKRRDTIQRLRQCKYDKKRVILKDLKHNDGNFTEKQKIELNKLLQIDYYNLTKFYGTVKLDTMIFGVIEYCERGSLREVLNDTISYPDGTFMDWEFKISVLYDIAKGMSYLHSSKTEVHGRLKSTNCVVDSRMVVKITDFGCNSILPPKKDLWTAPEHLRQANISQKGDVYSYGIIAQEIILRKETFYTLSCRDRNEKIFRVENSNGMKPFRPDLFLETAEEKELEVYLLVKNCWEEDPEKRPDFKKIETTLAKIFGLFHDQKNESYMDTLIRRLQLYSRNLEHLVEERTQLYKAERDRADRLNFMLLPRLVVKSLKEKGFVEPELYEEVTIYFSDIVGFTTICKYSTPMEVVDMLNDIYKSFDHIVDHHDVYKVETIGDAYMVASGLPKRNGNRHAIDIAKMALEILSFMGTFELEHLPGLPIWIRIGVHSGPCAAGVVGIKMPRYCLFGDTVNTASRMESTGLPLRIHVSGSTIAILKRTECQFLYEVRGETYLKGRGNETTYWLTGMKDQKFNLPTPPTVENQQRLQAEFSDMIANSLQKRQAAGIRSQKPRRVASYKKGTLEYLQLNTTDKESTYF

Data set [3] has as its target T1, guanylate cyclase-C (GC-C). Kind of data set: Competitive radioligand ([125I]-pSTa) binding assay on T84 cells. More on the design: cell-surface GC-C receptors on human colonic epithelial (T84) cells; endogenous in cells; host or cells: T84 human colonic epithelial cells. Conditions: competition with 170 pM [125I]-pSTa for cell-surface GC-C receptors on T84 cells; read-out: inhibition constant (Ki), relative binding affinity. As for the experimental part: The relative binding affinities of linaclotide and Cys1-IMD to the guanylate cyclase-C receptor (GC-C) were determined using a competitive-binding assay in which the peptides competed with a known GC-C agonist, porcine-derived heat-stable enterotoxin (pSTa), for binding sites on cell-surface GC-C receptors on human colonic epithelial (T84) cells. The pSTa was radiolabeled with ^125I to enable measurement of its receptor binding. The competitive-binding assay was performed by adding various concentrations of each peptide (0.1 to 3,000 nM) to 0.20 mL reaction mixtures containing Dulbecco's modified Eagle's medium (DMEM), 0.5% bovine serum albumin (BSA), 2.0×10^5 T84 cells, and 170 pM [^125I]-pSTa (200,000 cpm). The data were used to construct competitive radioligand-binding curves and determine the relative binding affinities of linaclotide and Cys1-IMD, as measured by their IC50 and Ki values.

Where a SMILES comes first, the peptide text is derived from it. Bridges are numbered along the chain shown (N, C = ends).

The term EC50 denotes the concentration at which the effect is half-maximal. High values mean weaker potency, low ones greater potency. For orientation: Ki means a measure of affinity in units of concentration, obtained from inhibition or displacement. In the case of `C[C@@H]1NC(=O)[C@@H]2CCCN2C(=O)[C@H](CC(N)=O)NC(=O)[C@@H]2CSSC[C@H](N)C(=O)N[C@H]3CSSC[C@H](NC1=O)C(=O)N[C@@H]([C@@H](C)O)C(=O)NCC(=O)N[C@H](C(=O)N[C@@H](Cc1ccc(O)cc1)C(=O)O)CSSC[C@H](NC(=O)[C@H](Cc1ccc(O)cc1)NC(=O)[C@H](CCC(=O)O)NC3=O)C(=O)N2` [Linaclotide, Cys Cys Glu Tyr Cys Cys Asn Pro Ala Cys Thr Gly Cys Tyr] (H-CCEYCCNPACTGCY-OH; disulfide 1-6, 2-10, 5-13 (inferred); N-terminus and C-terminus assumed), in data set [1], the “levels of linaclotide seen systemically” value is “no detectable levels”. This molecule also yielded an EC50 in data set [2] of 315 ± 105 nM. Further, the inhibition constant Ki in data set [3] came out at 3.9 ± 1.6 nM.
